Results from patent US7671238B2, “Arylamino-arylpropanolamine derivatives and methods of their use” (Wyeth LLC, priority 2006, dated 2010).
Counter-ions that a name gives are not always drawn.

Molecular target: T1, hNET (Homo sapiens, UniProt P23975)
T1 construct: expressed in transfected cells; host or cells: MDCK-Net6 (MDCK cells stably transfected with hNET)
Assay: Norepinephrine (NE) uptake assay in MDCK-Net6 cells
Format: cell-based
Settings: 1 μM test compound; MDCK-Net6 cells stably transfected with human hNET; [3H]NE uptake
Protocol: Cells were plated at 300,000 T75 flask and cells were split twice weekly. […] Cells were plated at 250,000 cells/T75 flask and split twice weekly.
On day 1, cells were plated at 3,000 cells/well in growth medium and maintained in a cell incubator (37° C., 5% CO2). On day 2, growth medium was replaced with […] of assay buffer (25 mM HEPES; 120 mM NaCl; 5 mM KCl; 2.5 mM CaCl2; 1.2 mM MgSO4; 2 mg/ml glucose (pH 7.4, 37° C.)) containing 0.2 mg/ml ascorbic acid and […]. Plates containing cells with […] of assay buffer were equilibrated for 10 minutes at 37° C. prior to addition of compounds. A stock solution of desipramine was prepared in DMSO (10 mM) and delivered to triplicate wells containing cells for a final test concentration of 1 μM. Data from these wells were used to define non-specific NE uptake (minimum NE uptake). Test compounds were prepared in DMSO (10 mM) and diluted in assay buffer according to test range (1 to 10,000 nM). Twenty-five microliters of assay buffer (maximum NE uptake) or test compound were added directly to triplicate wells containing cells in 200 μl of assay buffer. The cells in assay buffer with test compounds were incubated for 20 minutes at 37° C. To initiate the NE uptake, [^3H]NE diluted in assay buffer (120 nM final assay concentration) was delivered in 25 μl aliquots to each well and the plates were incubated for 5 minutes (37° C.). The reaction was terminated by decanting the supernatant from the plate. The plates containing cells were washed twice with 200 μl assay buffer (37° C.) to remove free radioligand. The plates were then inverted, left to dry for 2 minutes, then reinverted and air-dried for an additional 10 minutes. The cells were lysed in 25 μl of 0.25 N NaOH solution (4° C.), placed on a shake table and vigorously shaken for 5 minutes. After cell lysis, 75 μl of scintillation cocktail was added to each well and the plates were sealed with film tape. The plates were returned to the shake table and vigorously shaken for a minimum of 10 minutes to ensure adequate partitioning of organic and aqueous solutions. The plates were counted in a Wallac Microbeta counter (PerkinElmer) to collect the raw cpm data.
For each experiment, a data stream of cpm values collected from the Wallac Microbeta counter was downloaded to a Microsoft Excel statistical application program. Calculations of EC50 values were made using the transformed-both-sides logistic dose response program written by Wyeth Biometrics Department.

T1 sequence (P23975 whole entry): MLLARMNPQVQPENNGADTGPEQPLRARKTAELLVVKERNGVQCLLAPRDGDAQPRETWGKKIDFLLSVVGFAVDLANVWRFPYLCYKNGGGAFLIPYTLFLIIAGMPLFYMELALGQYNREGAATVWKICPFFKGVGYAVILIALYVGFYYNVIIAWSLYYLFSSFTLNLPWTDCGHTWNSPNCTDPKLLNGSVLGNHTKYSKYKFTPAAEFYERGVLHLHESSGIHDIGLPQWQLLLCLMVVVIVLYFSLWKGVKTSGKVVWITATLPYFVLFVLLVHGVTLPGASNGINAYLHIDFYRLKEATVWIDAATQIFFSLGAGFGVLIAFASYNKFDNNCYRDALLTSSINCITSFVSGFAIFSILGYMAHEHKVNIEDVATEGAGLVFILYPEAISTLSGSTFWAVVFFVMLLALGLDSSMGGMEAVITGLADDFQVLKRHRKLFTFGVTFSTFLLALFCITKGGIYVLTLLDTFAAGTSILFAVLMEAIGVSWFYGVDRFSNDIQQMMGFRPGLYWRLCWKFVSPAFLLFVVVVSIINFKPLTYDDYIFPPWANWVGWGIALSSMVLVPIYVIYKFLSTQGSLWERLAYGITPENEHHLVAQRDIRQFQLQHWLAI

Structure (SMILES) | inhibition at 1 µM
Cc1cccc(N(C)[C@@H](c2ccccc2)[C@H](O)CN)c1 (racemic) [Example 2, (1RS,2SR)-3-amino-1-[methyl(3-methylphenyl)amino]-1-phenylpropan-2-ol hydrochloride] | 92%
CN(c1ccccc1Cl)[C@@H](c1ccccc1)[C@H](O)CN (racemic) [Example 3, (1RS,2SR)-3-amino-1-[(2-chlorophenyl)(methyl)amino]-1-phenylpropan-2-ol hydrochloride] | 45%
COc1cccc(N(C)[C@@H](c2ccccc2)[C@H](O)CN)c1 (racemic) [Example 4, (1RS,2SR)-3-amino-1-[(3-methoxyphenyl)(methyl)amino]-1-phenylpropan-2-ol hydrochloride] | 86%
COc1ccc([C@@H]([C@H](O)CN)N(C)c2ccc(Cl)cc2)cc1 (racemic) [Example 6, (1RS,2SR)-3-amino-1-[(4-chlorophenyl)(methyl)amino]-1-(4-methoxyphenyl)propan-2-ol hydrochloride] | 92%
CNC[C@@H](O)[C@H](c1cccc(F)c1)N(C)c1ccc(Cl)cc1 (racemic) [Example 23, (1RS,2SR)-1-[(4-chlorophenyl)(methyl)amino]-1-(3-fluorophenyl)-3-(methylamino)propan-2-ol hydrochloride] | 99%
CNC[C@@H](O)[C@H](c1ccc(OC)cc1)N(C)c1cccc(F)c1 (racemic) [Example 24, (1RS,2SR)-1-[(3-fluorophenyl)(methyl)amino]-1-(4-methoxyphenyl)-3-(methylamino)propan-2-ol hydrochloride] | 92%
CNC[C@@H](O)[C@H](c1ccc(OC)cc1)N(C)c1ccc(Cl)cc1 (racemic) [Example 25, (1RS,2SR)-1-[(4-chlorophenyl)(methyl)amino]-1-(4-methoxyphenyl)-3-(methylamino)propan-2-ol hydrochloride] | 97%
CNC[C@@H](O)[C@H](c1ccc(OC)cc1)N(C)c1ccc(OC)cc1 (racemic) [Example 26, (1RS,2SR)-1-(4-methoxyphenyl)-1-[(4-methoxyphenyl)(methyl)amino]-3-(methylamino)propan-2-ol hydrochloride] | 75%
CCNC[C@@H](O)[C@H](c1ccccc1)N(C)c1ccc(C)cc1 (racemic) [Example 28, (1RS,2SR)-3-(ethylamino)-1-[methyl(4-methylphenyl)amino]-1-phenylpropan-2-ol hydrochloride] | 71%
CCNC[C@@H](O)[C@H](c1ccc(OC)cc1)N(C)c1ccc(Cl)cc1 (racemic) [Example 29, (1RS,2SR)-1-[(4-chlorophenyl)(methyl)amino]-3-(ethylamino)-1-(4-methoxyphenyl)propan-2-ol hydrochloride] | 95%
CCNC[C@@H](O)[C@H](c1cccc(Cl)c1)N(C)c1ccccc1 (racemic) [Example 30, (1RS,2SR)-1-(3-chlorophenyl)-3-(ethylamino)-1-[methyl(phenyl)amino]propan-2-ol hydrochloride] | 56%
CCNC[C@@H](O)[C@H](c1ccc(Cl)cc1)N(C)c1ccccc1 (racemic) [Example 31, (1RS,2SR)-1-(4-chlorophenyl)-3-(ethylamino)-1-[methyl(phenyl)amino]propan-2-ol hydrochloride] | 88%
Cc1ccc(N(C)[C@@H](c2ccccc2)[C@H](O)CN(C)C)cc1 (racemic) [Example 32, (1RS,2SR)-3-(dimethylamino)-1-[methyl (4-methylphenyl)amino]-1-phenylpropan-2-ol hydrochloride] | 95%
